Experimental findings from patent US6281214A, “Biphenyl derivatives” (Eisai Co., Ltd, priority 1994, dated 2001) are described below.

A value given as a limit tells only on which side of the number the result lay.

Holding throughout (set-up): species or system SD rats
One assay concerns the target T1, serotonin S2 receptor (Rattus norvegicus, UniProt P14842).
T1 construct: The receptor fraction prepared from the cortex was molten and suspended; from tissue; host or cells: cerebral cortex of SD rats (membrane fraction)
Put plainly: serotonin S2 receptor binding test ([3H] Ketanserin Binding Test). As to conditions: 1 nM [3H] Ketanserin, rat cortex, 37° C., 15 minutes. The method, then:
(§1) The compounds of the present invention were subjected to each of serotonin S2 receptor binding test, dopamine D2 receptor binding test and adrenergic α1 receptor binding test.
(§2) The following reagents were used in this test.
(§3) These reagents and samples were each dissolved in 10% ethanol before use. Among them, water-insoluble compounds were each dissolved in ethanol and the obtained solution was diluted with distilled water to an ethanol concentration of 10%. Further, Methylsergide maleate was used in a state dissolved in distilled water.
(§4) SD rats aged 6 to 8 weeks were used.
(§5) SD rats were each slaughtered with a guillotine to extirpate its cerebrum. The cortex and corpus striatum were separated from the cerebrum. The former was used in serotonin S2 receptor binding test and adrenergic α1, receptor binding test, while the latter was used in dopamine D2 receptor binding test.
(§6) The cortex was homogenized in a 0.32 M sucrose solution in an amount ten times the wet weight of the cortex by the use of a teflon glass homogenizer and the resulting mixture was centrifuged at 10,000×G for 20 minutes. The obtained sediment was suspended in 50 mM Tris hydrochloride (pH 7.4) in an amount ten times the initial wet weight of the cortex by the use of a histocothrom, and the obtained suspension was centrifuged at 10,000×G for 20 minutes. This operation was repeated twice. The obtained sediment was suspended in 50 mM Tris hydrochloride (pH 7.4) in an amount 20 times the initial wet weight of the cortex by the use of a histocothrom. The suspension thus prepared was used as a receptor fraction. This receptor fraction was stored at -80° C. until use.
4. [^3 ] Ketanserin Binding Test
The receptor fraction prepared from the cortex was molten and suspended by the use of a histocothrom. The resulting suspension was incubated together with 1 nM-[^3 H] Ketanserin at 37° C. for 15 minutes. The resulting reaction system was filtered through a Whatman GF/B glass filter with an MR-30R type cell harvester mfd. by Blandel. The resulting filter was washed twice with 5 ml of 50 mM Tris hydrochloride (ph 7.4) cooled with ice and the radioactivity of the Ketanserin bound the receptor was determined by the use of a liquid scintillation counter with 5 ml of ACS II. The binding detected in the presence of […] of Methylsergide was regarded as nonspecific binding.
(§7) Each IC50 value was calculated by the probit method and each Ki value was determined by the following formula: [formula]
(§8) In the above formula, C represents the concentration of radioligand, and Kd represents the affinity of radioligand for the receptor as determined by the Scatchard analysis.

The target of another assay is T2, dopamine D2 receptor (Rattus norvegicus, UniProt P61169).
T2 construct: the receptor fraction prepared from the corpus striatum was molten and suspended; from tissue; host or cells: corpus striatum of SD rats (membrane fraction)
Put plainly: dopamine D2 receptor binding test ([3H] Spiperone Binding Test). As to conditions: 1 nM [3H] Spiperone, rat corpus striatum, room temperature, 60 minutes; read-out: Ki value, dopamine D2 receptor. As to the method: as §1, §2, §3, §4, §5
On the other hand, the corpus striatum was homogenized in a 0.32 M sucrose solution in an amount ten times the wet weight of the corpus striatum by the use of a teflon glass homogenizer and the obtained mixture was centrifuged at 1,000×G for 20 minutes. The obtained supernatant was centrifuged at 10,000×G for 20 minutes. The obtained sediments were suspended together in 50 mM Tris hydrochloride (pH 7.4) in an amount ten times the initial wet weight of the corpus striatum by the use of a histocothrom, and the obtained suspension was centrifuged at 10,000×G for 20 minutes. This operation was repeated thrice. The resulting sediment was suspended in 50 mM Krebs-Tris (pH 7.4) in an amount 100 times the initial wet weight of the corpus striatum by the use of a histocothrom. The obtained suspension was used as a receptor fraction. This receptor fraction was stored at -80° C. until use.
as §7, §8
5. [^3 H] Spiperone Binding Test
This test was conducted in the same manner as that of the binding test of [^3 H] Ketanserin except that the receptor fraction prepared from the corpus striatum was molten and suspended with a histocothrom, and the obtained suspension was incubated together with 1 nM-[^3 H], Spiperone at room temperature for 60 minutes and that the binding detected in the presence of 10 μl of Spiperone was regarded as nonspecific binding.

Another assay has as its target adrenergic α1 receptor. Put plainly: adrenergic α1 receptor binding test ([3H] Prazosin Binding Test). As to conditions: 1 nM [3H] Prazosin, rat cortex, room temperature, 60 minutes. The method, then:
as §1, §2, §3, §4, §5, §6, §7, §8
6. [^3 H] Prazosin Binding Test
This test was conducted in the same manner as that of the binding test of [^3 H] Ketanserin except that the receptor fraction prepared from the cortex was molten and suspended with a histocothrom, and the obtained suspension was incubated together with 1 nM-[^3 H] Prazosin at room temperature for 60 minutes and that the binding detected in the presence of 10 μl of Phentolamine was regarded as nonspecific binding.

T2 sequence (P61169 whole entry): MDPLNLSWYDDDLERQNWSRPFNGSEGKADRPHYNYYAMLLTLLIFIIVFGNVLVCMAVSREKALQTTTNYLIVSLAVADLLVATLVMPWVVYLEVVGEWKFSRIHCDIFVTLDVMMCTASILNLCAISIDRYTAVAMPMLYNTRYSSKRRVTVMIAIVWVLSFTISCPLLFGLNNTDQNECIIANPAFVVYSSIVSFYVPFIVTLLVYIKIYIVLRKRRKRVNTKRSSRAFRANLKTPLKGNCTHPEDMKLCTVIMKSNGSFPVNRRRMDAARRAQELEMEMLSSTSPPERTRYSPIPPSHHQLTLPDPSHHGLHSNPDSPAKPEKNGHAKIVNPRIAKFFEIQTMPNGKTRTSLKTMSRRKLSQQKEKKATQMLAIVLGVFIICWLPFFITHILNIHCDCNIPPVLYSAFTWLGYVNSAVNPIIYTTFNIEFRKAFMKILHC
T1 sequence (P14842 whole entry): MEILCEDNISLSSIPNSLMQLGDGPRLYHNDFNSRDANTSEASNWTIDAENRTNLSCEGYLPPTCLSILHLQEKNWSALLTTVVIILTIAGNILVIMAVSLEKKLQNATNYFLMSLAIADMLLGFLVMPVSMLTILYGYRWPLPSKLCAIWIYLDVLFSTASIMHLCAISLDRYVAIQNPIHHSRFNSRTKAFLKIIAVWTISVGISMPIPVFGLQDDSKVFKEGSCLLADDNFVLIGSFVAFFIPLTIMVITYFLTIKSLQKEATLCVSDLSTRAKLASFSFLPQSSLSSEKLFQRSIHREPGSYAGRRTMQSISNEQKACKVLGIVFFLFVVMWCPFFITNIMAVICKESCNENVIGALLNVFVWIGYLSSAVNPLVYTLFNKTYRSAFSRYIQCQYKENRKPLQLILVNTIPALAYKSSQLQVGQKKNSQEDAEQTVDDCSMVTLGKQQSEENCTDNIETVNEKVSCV

With `CCC(F)c1cc(N2CCN(CC)CC2)cc(-c2ccccc2COC)c1Cl` (stereo not drawn) [Example 145, 1-Ethyl-4-[3-(2-methoxymethylphenyl)-4-chloro-5-(1-fluoropropyl)]phenylpiperazine], the Ki (usually the dissociation constant of the complex between target and ligand, obtained from inhibition or displacement) at serotonin S2 receptor is 0.0725 µM; on dopamine D2 receptor, 0.00828 µM; on adrenergic α1 receptor, > 1 µM.

As to `COc1c(C(=O)Cc2ccccc2)cc(N2CCNCC2)cc1-c1ccccc1` [Example 125, 1-(3-phenyl-4-methoxy-5-phenylacetyl)phenylpiperazine], the figures for the Ki at serotonin S2 receptor, at dopamine D2 receptor and at adrenergic α1 receptor were 0.00149 µM, 0.101 µM and > 1 µM, respectively.

As for `C=CCCC(F)c1cc(N2CCN(CC)CC2)cc(-c2ccccc2)c1OC` (stereo not drawn) [Example 46, 1-Ethyl-4-{3-phenyl-4-methoxy-5-[1-fluoro-(4-pentenyl)]}phenylpiperazine], the Ki was 0.00216 µM on serotonin S2 receptor, 0.00978 µM on dopamine D2 receptor and > 1 µM at adrenergic α1 receptor.

Take `CCN1CCN(c2cc(-c3ccccc3)c(OC)c(C(C)(C)O)c2)CC1` [Example 80]: the figures for the Ki at serotonin S2 receptor, at dopamine D2 receptor and on adrenergic α1 receptor were 0.177 µM, 0.81 µM and > 1 µM, respectively.

Turning to `CCC(F)c1cc(N2CCN(CC)CC2)cc(-c2ccccc2C)c1C#N` (stereo not drawn) [Example 164, 1-Ethyl-4-[3-(2-tolyl)-4-cyano-5-(1-fluoropropyl)]phenylpiperazine], the Ki on serotonin S2 receptor is 0.012 µM; at dopamine D2 receptor, 0.00162 µM; at adrenergic α1 receptor, > 1 µM.

Regarding `CCCC(F)c1cc(N2CCN(C)CC2)cc(-c2ccccc2C)c1Cl` (stereo not drawn) [Example 53, 1-Methyl-4-[3-(2-tolyl)-4-chloro-5-(1-fluorobutyl)]phenylpiperazine], the figures for the Ki on serotonin S2 receptor, on dopamine D2 receptor and on adrenergic α1 receptor were 0.0124 µM, 0.00673 µM and > 1 µM, respectively.

Take `CCN1CCN(c2cc(-c3ccccc3C)c(F)c(S(C)(=O)=O)c2)CC1` [Example 155]: the Ki at serotonin S2 receptor stood at 0.18 µM; at dopamine D2 receptor, 0.041 µM; at adrenergic α1 receptor, 0.845 µM.

As to `CCC(F)c1cc(N2CCN(CCO)CC2)cc(-c2ccccc2C#N)c1Cl` (single isomer, unassigned) [Example 13, 1-(2-hydroxyethyl)-4-[3-(2-cyanophenyl)-4-chloro-5-(fluoropropyl)]phenylpiperazine], the Ki at serotonin S2 receptor worked out at 0.0249 µM; on dopamine D2 receptor, 0.00405 µM; on adrenergic α1 receptor, 0.404 µM.

In the case of `CCN1CCN(c2cc(-c3ccc(F)cc3)c(OC)cc2C(C)C)CC1` [Example 79], the Ki is 0.192 µM on serotonin S2 receptor, 0.0285 µM at dopamine D2 receptor and 0.0698 µM on adrenergic α1 receptor.

Turning to `CCN1CCN(c2cc(CCO)cc(-c3ccccc3)c2OC)CC1` [Example 67, 1-Ethyl-4-[2-methoxy-3-phenyl-5-(2-hydroxyethyl)]phenylpiperazine], the Ki on serotonin S2 receptor is > 1 µM; on dopamine D2 receptor, > 1 µM; at adrenergic α1 receptor, 0.687 µM.

For the compound `CCN1CCN(c2cc(-c3ccccc3)c(OC)c(-c3ccco3)c2)CC1` [Example 90], the Ki is 0.685 µM at serotonin S2 receptor, 0.263 µM at dopamine D2 receptor and > 1 µM at adrenergic α1 receptor.

For the compound `CCC(=O)c1cc(N2CCN(CC)CC2)cc(-c2ccccc2)c1Cl` [Example 140, 1-Ethyl-4-(3-phenyl-4-chloro-5-propionyl)phenylpiperazine], the results for the Ki at serotonin S2 receptor, at dopamine D2 receptor and at adrenergic α1 receptor were 0.0262 µM, 0.00297 µM and 0.0955 µM, respectively.

Regarding `CCN1CCN(c2cc(-c3ccccc3)c(O)c(-c3ccccc3)c2)CC1` [Example 58, 1-Ethyl-4-(3,5-diphenyl-4-hydroxy)phenylpiperazine], the Ki at serotonin S2 receptor is > 1 µM; at dopamine D2 receptor it was > 1 µM; at adrenergic α1 receptor, 0.29 µM.

On to `CCC(F)c1cc(N2CCN(CC)CC2)cc(-c2ccccc2CF)c1Cl` (stereo not drawn) [Example 208, 1-Ethyl-4-[3-(2-fluoromethylphenyl)-4-chloro-5-(1-fluoropropyl)]phenylpiperazine], for which the Ki on serotonin S2 receptor came out at 0.0161 µM; on dopamine D2 receptor, 0.00346 µM; at adrenergic α1 receptor it was 2.38 µM.

With `COc1c(-c2ccccc2)cc(N2CCN(CCO)CC2)cc1-c1ccccc1` [Example 64], the Ki on serotonin S2 receptor came out at 0.284 µM; on dopamine D2 receptor, 0.384 µM; on adrenergic α1 receptor, 0.459 µM.

For the compound `CCCC(O)c1cc(N2CCN(C)CC2)cc(-c2ccccc2C)c1Cl` (stereo not drawn) [Example 174], the Ki on serotonin S2 receptor is 0.0487 µM; at dopamine D2 receptor it was 0.0318 µM; on adrenergic α1 receptor it was > 1 µM.

In the case of `COc1c(C(=O)Cc2ccccc2)cc(N2CCN(Cc3ccccc3)CC2)cc1-c1ccccc1` [Example 126, 1-Benzyl-4-(3-phenyl-4-methoxy-5-phenylacetyl)phenylpiperazine], the values for the Ki at serotonin S2 receptor, on dopamine D2 receptor and on adrenergic α1 receptor were 0.0273 µM, 0.0546 µM and > 1 µM, respectively.

Turning to `CCCCS(=O)(=O)Nc1cc(N2CCN(C)CC2)cc(-c2ccccc2C)c1Cl` [Example 30], the Ki is 0.00224 µM at serotonin S2 receptor, 0.00086 µM on dopamine D2 receptor and 0.0925 µM at adrenergic α1 receptor.

`CCN1CCN(c2cc(-c3ccccc3C)c(Cl)c(S(C)(=O)=O)c2)CC1` [Example 158, 1-Ethyl-4-[3-(2-tolyl)-4-chloro-5-methanesulfonyl]phenylpiperazine]: the figures for the Ki on serotonin S2 receptor, at dopamine D2 receptor and on adrenergic α1 receptor were 0.124 µM, 0.0124 µM and > 1 µM, respectively.

Take `CCN1CCN(c2cc(-c3ccccc3)c(OC)c(C(F)Cc3ccccn3)c2)CC1` (stereo not drawn) [Example 99, 1-Ethyl-4-{3-phenyl-4-methoxy-5-[1-fluoro-2-(2-pyridyl)ethyl]}phenylpiperazine]: the Ki on serotonin S2 receptor was 0.17 µM; at dopamine D2 receptor, 0.00293 µM; on adrenergic α1 receptor, > 1 µM.

As for `CCN1CCN(c2cc(-c3ccccc3C)c(Cl)c(S(=O)(=O)Nc3ccccc3)c2)CC1` [Example 166, 1-Ethyl-4-[3-(2-tolyl)-4-chloro-5-phenylaminosulfony]phenylpiperazine], the Ki on serotonin S2 receptor is 0.00542 µM; at dopamine D2 receptor it was 0.00142 µM; at adrenergic α1 receptor, > 1 µM.

Turning to `O=C(Cc1ccccc1)c1cc(N2CCNCC2)cc(-c2ccccc2)c1O` [Example 118, 1-(3-Phenyl-4-hyroxy-5-phenylaectyl)phenylpiperazine], the Ki on serotonin S2 receptor is 0.468 µM; on dopamine D2 receptor it was 0.149 µM; on adrenergic α1 receptor, > 1 µM.

On to `CCCc1cc(N2CCN(CC)CC2)cc(-c2cccc(F)c2)c1OC` [Example 101, 1-Ethyl-4-[3-(3-fluorophenyl)-4-methoxy-5-propyl]phenylpiperazine], for which the values for the Ki on serotonin S2 receptor, on dopamine D2 receptor and on adrenergic α1 receptor were 0.262 µM, 0.118 µM and > 1 µM, respectively.

`CCN1CCN(c2cc(CCF)c(OC)c(-c3ccccc3)c2)CC1` [Example 76, 1-Ethyl-4-[3-phenyl-4-methoxy-5-(2-fluoroetheyl)]phenylpiperazine]: the Ki was 0.145 µM at serotonin S2 receptor, 0.0501 µM on dopamine D2 receptor and 0.112 µM at adrenergic α1 receptor.

`CCN1CCN(c2cc(-c3ccccc3)c(OC)c(C3OCCCO3)c2)CC1` [Example 107, 1-Ethyl-4-[3-phenyl-4-methoxy-5-(1,3-dioxan-2yl)]phenylpiperazine]: the Ki was > 1 µM on serotonin S2 receptor, 0.429 µM on dopamine D2 receptor and > 1 µM at adrenergic α1 receptor.

As to `CCCc1cc(N2CCN(CC)CC2)cc(-c2ccc(F)cc2)c1OC` [Example 65], the Ki worked out at 0.0266 µM on serotonin S2 receptor, 0.0066 µM on dopamine D2 receptor and 0.079 µM at adrenergic α1 receptor.
